Consider five compounds from publication PMC7073524 (Marine Drugs, 2020).

One assay has as its target rat brain α7 receptors (Rattus norvegicus, UniProt Q05941). Kind of assay: biochemical. It is filed as binding.
Another assay concerns the target T1, human α7 nAChR (Homo sapiens, UniProt P36544).
T1 construct: expressed in transfected cells; host or cells: Xenopus laevis oocytes (mRNA injection)
Put plainly: Two-electrode voltage-clamp, human α7 nAChRs expressed in Xenopus oocytes. It is filed as cell-based. As to conditions: for EC50: EC50, potency, peak current estimates; for EC50 / Imax (% ACh): ± SEM; for Imax (% ACh): efficacy, peak current normalized to 1 mM ACh; for agonist character at α7 nAChRs: in words. The text has this:
(§1) It has been especially useful for investigating α7 nAChRs, due to the difficulties that were initially encountered in functional expression of this particular homomeric nAChR in mammalian cells. We measured the peak current response of an oocyte to a given concentration of the compound and expressed its amplitude with respect to the mean response to ACh before and after the compound test concentration.
(§2) Oocytes were harvested from Xenopus laevis frogs obtained from NASCO Scientific Co. (Ft. Atkinson, WI, USA) according to an accepted Kem laboratory Institutional Animal Care Committee (IACUC) approved protocol. We have already described the methods of oocyte injection, perfusion, rapid solution changes, and recording in considerable detail. Oocytes were injected with identical amounts (usually 12 ng) of human α4 and β2 mRNAs for α4β2 nAChR expression, or 20 ng of human α7 mRNAs for α7 nAChR expression. The two-electrode voltage-clamp method was used for recording peak responses (holding Em-50 mV for α4β2 and-60 mV for α7 receptors). […] The oocyte was no longer used if the current response to ACh decreased more than 20% during the experiment. Compounds dissolved in Barth’s saline (pH 7.3) were rapidly administered by an AutoMate perfusion system. Compound applications were separated by a 5 min wash period. We utilized GraphPad Prism software to analyze the data, always assuming a single homogeneous receptor population.

Assay [1] deals with T2, human α4β2 nAChR (Homo sapiens, UniProt P17787+P43681).
T2 construct: expressed in transfected cells; host or cells: Xenopus laevis oocytes (mRNA injection)
T2 sequence (P43681 29-627 limits assumed): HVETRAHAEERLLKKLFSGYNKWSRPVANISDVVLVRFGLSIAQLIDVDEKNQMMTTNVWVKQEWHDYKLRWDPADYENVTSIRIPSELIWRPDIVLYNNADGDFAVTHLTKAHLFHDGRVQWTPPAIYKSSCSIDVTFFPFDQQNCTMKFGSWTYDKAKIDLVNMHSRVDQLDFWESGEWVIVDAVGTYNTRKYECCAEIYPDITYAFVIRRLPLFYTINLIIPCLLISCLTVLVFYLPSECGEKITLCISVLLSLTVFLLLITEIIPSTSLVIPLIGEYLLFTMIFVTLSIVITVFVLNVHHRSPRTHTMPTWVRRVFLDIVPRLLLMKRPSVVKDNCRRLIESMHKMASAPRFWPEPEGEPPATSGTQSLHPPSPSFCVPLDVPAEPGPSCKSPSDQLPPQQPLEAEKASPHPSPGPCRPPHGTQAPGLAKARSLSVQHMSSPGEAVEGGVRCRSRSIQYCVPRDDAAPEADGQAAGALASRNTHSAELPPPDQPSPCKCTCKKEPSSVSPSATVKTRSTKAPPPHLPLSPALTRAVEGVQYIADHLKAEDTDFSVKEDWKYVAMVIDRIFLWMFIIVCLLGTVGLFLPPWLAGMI
T2 sequence (P17787 26-502): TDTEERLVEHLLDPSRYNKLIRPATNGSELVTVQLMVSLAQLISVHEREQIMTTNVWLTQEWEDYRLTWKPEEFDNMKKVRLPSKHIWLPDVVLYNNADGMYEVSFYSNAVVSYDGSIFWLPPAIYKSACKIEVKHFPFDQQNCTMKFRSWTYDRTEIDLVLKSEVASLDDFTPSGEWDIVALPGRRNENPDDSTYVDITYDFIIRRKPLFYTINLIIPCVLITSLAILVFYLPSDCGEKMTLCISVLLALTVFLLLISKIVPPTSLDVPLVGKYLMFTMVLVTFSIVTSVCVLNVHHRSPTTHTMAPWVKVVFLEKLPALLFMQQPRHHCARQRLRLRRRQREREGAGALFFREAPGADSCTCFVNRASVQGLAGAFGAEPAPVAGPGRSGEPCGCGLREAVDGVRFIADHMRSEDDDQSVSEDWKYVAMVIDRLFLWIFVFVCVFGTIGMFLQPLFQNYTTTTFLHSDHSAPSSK
Kind of assay: Two-electrode voltage-clamp, human α4β2 nAChRs expressed in Xenopus oocytes. The class given is cell-based. As to conditions: ± SEM; for EC50: EC50, potency, peak current; for Imax (% ACh): efficacy, peak current normalized to 100 µM ACh.
Source text: as §1, §2
(Two-electrode voltage clamp holds a large cell at a set potential and records current.)

Another assay deals with rat brain α4β2 nAChRs (Rattus norvegicus, UniProt P09483+P12390). Put plainly: [3H]-cytisine displacement from rat brain membranes. It is filed as binding. As to conditions: ± SEM; for Ki: 0.3 nM [3H]-cytisine, 4 °C 4 h; for Hill Slope: [3H]-cytisine displacement. How it is done:
[^3H]-Cytisine was purchased from New England Nuclear and iodinated α-bungarotoxin [^125I]-BTX from Amersham. […] [^3H]-Cytisine binding experiments were performed according to [57] with several modifications. Rat brain membranes were incubated with [^3H]-cytisine at 4 °C for 4 h. Then, 200 μg of membrane protein was incubated in a final volume of 500 μL binding saline at 4 °C for 4 h, while binding assays with ^125I-bungarotoxin were incubated at 37 °C for 3 h to assure that equilibrium was reached. […] Reactions were terminated by vacuum filtrations through Whatman GF/C filters (presoaked in PEI) using a Brandel cell harvester. Bound [^3H]-cytisine and ^125I-bungarotoxin were measured with liquid scintillation and gamma counters, respectively. Data were analyzed using GraphPad Prism software (San Diego, CA, USA). The data were fit by nonlinear regression analyses to a sigmoidal dose-response with variable slope. Ki values were calculated using the Cheng-Prusoff equation (K i = IC50/(1 + [RL]/Kd RL)) with a Kd RL value for each radioligand that had been previously determined. IC50 is the median inhibition concentration of the experimental compound and [RL] is the concentration of the radioligand.

Assay [2] has as its target T2, human α4β2 nAChR. The settings on record: human α4β2 nAChRs; ref Kem et al., in preparation; cited from earlier work.

Read-outs that look alike come from different tables or passages of the source.

T1 sequence (P36544 23-502): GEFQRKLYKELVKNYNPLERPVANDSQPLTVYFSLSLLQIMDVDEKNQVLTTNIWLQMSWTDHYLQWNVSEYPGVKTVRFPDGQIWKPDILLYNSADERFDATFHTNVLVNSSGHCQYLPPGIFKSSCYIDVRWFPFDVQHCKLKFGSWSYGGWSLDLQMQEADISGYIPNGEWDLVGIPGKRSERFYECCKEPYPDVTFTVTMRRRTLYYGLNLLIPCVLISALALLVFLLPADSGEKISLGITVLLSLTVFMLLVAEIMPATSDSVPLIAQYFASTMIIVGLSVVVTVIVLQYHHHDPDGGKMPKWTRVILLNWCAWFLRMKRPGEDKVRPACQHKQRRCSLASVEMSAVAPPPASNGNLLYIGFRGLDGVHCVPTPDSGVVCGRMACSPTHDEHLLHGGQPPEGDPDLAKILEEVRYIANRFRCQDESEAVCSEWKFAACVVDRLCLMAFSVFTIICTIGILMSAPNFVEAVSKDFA
rat brain α4β2 nAChRs, sequence (P09483 31-630): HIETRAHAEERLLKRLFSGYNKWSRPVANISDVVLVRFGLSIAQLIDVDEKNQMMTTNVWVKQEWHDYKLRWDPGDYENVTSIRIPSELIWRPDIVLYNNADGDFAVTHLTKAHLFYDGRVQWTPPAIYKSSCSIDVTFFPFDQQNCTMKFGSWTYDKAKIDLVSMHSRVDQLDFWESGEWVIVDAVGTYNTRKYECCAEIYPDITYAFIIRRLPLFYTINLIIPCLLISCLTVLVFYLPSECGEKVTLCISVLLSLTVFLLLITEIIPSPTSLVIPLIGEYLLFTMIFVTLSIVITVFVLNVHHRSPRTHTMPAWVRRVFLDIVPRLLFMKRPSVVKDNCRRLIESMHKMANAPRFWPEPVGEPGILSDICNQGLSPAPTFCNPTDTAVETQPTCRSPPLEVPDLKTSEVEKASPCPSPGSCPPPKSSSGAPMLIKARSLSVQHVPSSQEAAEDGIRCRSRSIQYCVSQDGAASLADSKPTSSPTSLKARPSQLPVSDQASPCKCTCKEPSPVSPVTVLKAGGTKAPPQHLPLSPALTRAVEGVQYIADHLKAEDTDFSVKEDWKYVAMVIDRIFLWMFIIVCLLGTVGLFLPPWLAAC
rat brain α4β2 nAChRs, sequence (P12390 25-500): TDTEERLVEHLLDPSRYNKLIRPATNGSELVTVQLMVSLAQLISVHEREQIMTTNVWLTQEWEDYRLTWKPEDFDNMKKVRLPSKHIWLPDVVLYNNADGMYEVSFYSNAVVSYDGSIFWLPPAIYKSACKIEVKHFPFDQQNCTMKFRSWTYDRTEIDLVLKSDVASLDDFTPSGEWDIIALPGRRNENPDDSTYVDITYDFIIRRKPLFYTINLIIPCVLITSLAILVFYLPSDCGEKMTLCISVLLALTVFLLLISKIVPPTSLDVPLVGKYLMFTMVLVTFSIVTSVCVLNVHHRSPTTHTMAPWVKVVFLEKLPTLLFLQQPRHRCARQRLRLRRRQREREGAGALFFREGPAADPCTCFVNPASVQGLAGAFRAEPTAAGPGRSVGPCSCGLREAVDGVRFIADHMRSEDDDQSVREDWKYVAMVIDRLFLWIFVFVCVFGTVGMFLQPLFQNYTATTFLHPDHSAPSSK
rat brain α7 receptors, sequence (Q05941 23-502): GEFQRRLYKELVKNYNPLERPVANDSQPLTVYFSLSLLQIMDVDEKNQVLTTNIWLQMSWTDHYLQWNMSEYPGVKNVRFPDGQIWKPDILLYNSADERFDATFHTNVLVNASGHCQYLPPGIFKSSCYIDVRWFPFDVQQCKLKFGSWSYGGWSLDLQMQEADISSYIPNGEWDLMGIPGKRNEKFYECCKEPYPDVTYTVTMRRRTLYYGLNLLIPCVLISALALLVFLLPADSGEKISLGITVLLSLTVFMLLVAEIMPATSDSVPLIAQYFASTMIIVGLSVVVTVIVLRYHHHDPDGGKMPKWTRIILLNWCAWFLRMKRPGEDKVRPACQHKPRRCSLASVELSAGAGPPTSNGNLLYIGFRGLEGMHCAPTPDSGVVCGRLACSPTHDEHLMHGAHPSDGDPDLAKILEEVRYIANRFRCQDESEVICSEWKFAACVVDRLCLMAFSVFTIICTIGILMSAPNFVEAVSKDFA

On to `C1=CC[C@H](c2cccnc2)NC1` [R-anatabine, anatabine], for which the Ki on rat brain α7 receptors is 680 ± 120 nM.
In the case of `C1=CC(c2cccnc2)NCC1` (stereo not drawn) [R-isoanatabine, isoanatabine], at human α7 nAChR, the concentration giving a half-maximal response (EC50) was 61300 ± 12000 nM, the “Imax (% ACh)” value is 35.4 ± 5.3 % ACh and the “agonist character at α7 nAChRs” value was “weak partial agonist”. Moreover, on human α4β2 nAChR [1], the EC50 came to 310 ± 90 nM and the “Imax (% ACh)” value is 102 ± 5.7 %ACh. Besides, at rat brain α4β2 nAChRs, the Ki worked out at 136 ± 11 nM and the “Hill Slope” value is 0.94 ± 0.05.
Turning to `C1=CC[C@@H](c2cccnc2)NC1` [S-anatabine, anatabine], the affinity at rat brain α7 receptors, expressed as Ki, was 236 ± 20 nM.
For `c1cncc([C@@H]2CCCCN2)c1` [S-anabasine, anabasine], at human α4β2 nAChR [2], the EC50 was 4000 nM and the Imax is given as 78%.
On to `C1=CC(c2cccnc2)NCC1` (stereo not drawn) [S-isoanatabine, isoanatabine], for which, at human α7 nAChR, the EC50 was 52300 ± 13000 nM, the “Imax (% ACh)” value is 81.9 ± 9.1 % ACh and the “agonist character at α7 nAChRs” value is on record as “highly efficacious agonists”. For the same compound, on human α4β2 nAChR [1], the EC50 stood at 1010 ± 330 nM and the “Imax (% ACh)” value is listed as 78.7 ± 1.9 %ACh. On rat brain α4β2 nAChRs, the Ki is 108 ± 14 nM and the “Hill Slope” value came to 1.08 ± 0.15.

A word on the Ki: it is the equilibrium dissociation constant of an inhibitor or competing ligand from its target. The EC50 is the concentration at which the effect is half-maximal.
